In US4279822A, “N-(1-Substituted-3-pyrrolidinyl)benzamides” (A. H. Robins Company, Inc., priority 1976, dated 1981):

tested on: apomorphine-induced emesis in dogs; experiment: Reduction of apomorphine-induced emesis in dogs (anti-emetic effect); assay type: in vivo; conditions: Canis lupus familiaris, sc, 40 min, read-out: ED50, Anti-Emetic Effect of Subcutaneous Administration
Experimental: The anti-emetic properties of the compounds of Formula I were established using a modification of the methods of Chen and Ensor, J. Pharmac. Exp. Ther. 98: 245-250 (1950) and of Leonard et al., J. Pharmac. Exp. Ther. 154: 339-345 (1966). Drug activity was assessed by its ability to reduce the frequency of apomorphine-induced emesis in dogs. The dogs were prescreened for fairly constant emetic responses to the subcutaneous administration of 0.1 mg/kg. of apomorphine hydrochloride, and those which vomited five or more times in the 40-minute period after apomorphine administration were selected for drug studies.
Groups of three dogs were used in preliminary tests and for the determinations of time of peak drug effect. Dose response curves were usually obtained using four drug-treated groups; each group contained at least three dogs. The dogs were fed approximately 17 hours prior to a test. Drugs were administered and at suitable intervals the dogs received 0.1 mg/kg of apomorphine hydrochloride subcutaneously. Frequency of emesis was determined during the next 40 minutes and emesis was counted as the actual expulsion of stomach contents.
In oral studies, drugs were administered in gelatin capsules (controls received an empty capsule). In the subcutaneous studies, drugs were administered in distilled water and/or polyethylene glycol-300.
Dogs were re-used at intervals of not less than one week. The ED50 is the dose which reduces the frequency of emesis of drug treated dogs to a value 50% below that of controls. Mean frequency of emesis for each drug treated group was compared with a mean control value derived by pooling the prior control emetic frequencies for all dogs used on that test day. The difference is expressed as a percentage decrease relative to controls. The percent decrease in mean frequency of emesis for each drug-treated group (ordinate) was plotted against log dose (abscissa) on semi-log graph sheets. The ED50 was calculated by the method of Goldstein (Biostatistics, An Introductory Test; Pages 156-161; The MacMillan Co., New York, 1964).

Question: `CC(=O)Nc1ccc(C(=O)NC2CCN(C3CCCCC3)C2)cc1` (stereo not drawn) [Example 4, N-(1-Cyclohexyl-3-pyrrolidinyl)-4-acetamidobenzamide] was tested. Which ED50 did it give?
Answer: 2.4 mg/kg

Question: How did the ED50 turn out when `O=C(NC1CCN(C2CCCCC2)C1)c1cc([N+](=O)[O-])cc([N+](=O)[O-])c1` (stereo not drawn) [Example 6, N-(1-Cyclohexyl-3-pyrrolidinyl)-3,5-dinitrobenzamide] was run?
Answer: 0.15 mg/kg

Question: `O=C(NC1CCN(C2CCCCC2)C1)c1ccc(Cl)cc1Cl` (stereo not drawn) [Example 14] was tested. Which ED50 did it give?
Answer: 2.4 mg/kg

same assay, conditions: Canis lupus familiaris, sc, 40 min; dogs, s.c.; doses expressed as free base; apomorphine hydrochloride 0.1 mg/kg s.c.; 50% reduction of emesis frequency vs controls, 40 min; read-out: ED50, Anti-Emetic Effect of Subcutaneous Administration

Question: Which ED50 does the source give for `CNc1ccc(C(=O)N(C)C2CCN(C3CCCCC3)C2)cc1.Cl.Cl` (stereo not drawn) [Example 5, 4-Methylamino-N-(1-cyclohexyl-3-pyrrolidinyl)-N-methylbenzamide Dihydrochloride] here?
Answer: 0.05 mg/kg

same assay, conditions: dogs, 5 mg/kg s.c.; percent reduction in emesis over that of controls; apomorphine hydrochloride 0.1 mg/kg s.c.

Question: With `CS(=O)(=O)N(c1ccc(C(=O)NC2CCN(C3CCCCC3)C2)cc1)S(C)(=O)=O` (stereo not drawn) [Example 8, N-(1-Cyclohexyl-3-pyrrolidinyl)-4-[bis(methylsulfonyl)amino]benzamide] as the molecule, how does the “% Reduction in Emesis” value read?
Answer: -44%

Question: With `CC(=O)Nc1cccc(C(=O)NC2CCN(C3CCCCC3)C2)c1` (stereo not drawn) [Example 33] as the molecule, how does the “% Reduction in Emesis” value read?
Answer: -87%

Question: Which “% Reduction in Emesis” value does the source give for `CS(=O)(=O)Nc1ccc(C(=O)NC2CCN(C3CCCCC3)C2)cc1` (stereo not drawn) [Example 34] here?
Answer: -86%

Question: With `CC(=O)Nc1ccccc1C(=O)NC1CCN(C2CCCCC2)C1` (stereo not drawn) [Example 35] as the molecule, how does the “% Reduction in Emesis” value read?
Answer: -95%

Question: How did the “% Reduction in Emesis” value turn out when `CC(=O)Nc1ccc(C(=O)NC2CCN(Cc3ccccc3)C2)cc1` (stereo not drawn) [Example 36] was run?
Answer: -59%
